Reference: PMC6158189, “A pharmacological probe identifies cystathionine β-synthase as a new negative regulator for ferroptosis” (Cell Death & Disease, 2018)
“Also recorded” adds a separate entry of the source.

Molecular target: T1, hCBS (Homo sapiens, UniProt P35520)
T1 construct: GST (N); made in house; host or cells: E. coli BL21
T1 sequence (P35520 1-551): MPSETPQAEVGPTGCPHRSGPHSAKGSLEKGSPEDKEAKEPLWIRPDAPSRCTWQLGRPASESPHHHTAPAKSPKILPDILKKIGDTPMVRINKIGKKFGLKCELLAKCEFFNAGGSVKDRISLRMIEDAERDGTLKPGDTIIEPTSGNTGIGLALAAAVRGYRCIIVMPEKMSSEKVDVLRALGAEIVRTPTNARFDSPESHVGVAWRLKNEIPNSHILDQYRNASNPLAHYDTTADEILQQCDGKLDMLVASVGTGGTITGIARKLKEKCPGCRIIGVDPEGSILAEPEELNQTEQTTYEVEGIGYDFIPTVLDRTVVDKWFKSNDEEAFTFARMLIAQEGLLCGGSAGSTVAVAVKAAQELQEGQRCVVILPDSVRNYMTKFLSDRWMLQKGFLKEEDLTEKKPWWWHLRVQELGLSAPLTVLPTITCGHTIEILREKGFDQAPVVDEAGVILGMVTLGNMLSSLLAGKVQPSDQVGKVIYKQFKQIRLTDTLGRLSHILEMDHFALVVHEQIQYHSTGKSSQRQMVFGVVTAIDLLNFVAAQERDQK
Assay: rapid dilution reversibility experiment
Format: biochemical
Conditions: 10 μM, 40 min pre-incubation with 20 μM hCBS, 200-fold dilution
Protocol: Figure S2. The mode of action of CH004 in inhibiting hCBS. […] After incubation with DMSO or CH004 at 10 μM for 40 min, hCBS (20 μM) was diluted 200-fold and the activity was measured according to the standard assay protocol (Materials and Methods). The data are presented as percentages of control (CTR; DMSO, 100%) and shown as means ± SDs (n = 5). The effects of 0.05 and 10 μM CH004 on hCBS (100 nM) without pre-incubation were defined as positive control (PC) and negative control (NC), respectively. (B) Inhibition of hCBS by CH004 as a function of PLP concentration with Cys (20 mM) together with Hcys (10 mM) as substrates (non-competitive inhibition constant αKi=15.2 ± 4.9 μM). (C) Inhibition of hCBS by CH004 as a function of Cys concentration in the presence of 100 μM PLP and the absence of Hcys (mixed inhibition constant αKi=26.4 ± 8 μM). (D) Inhibition of hCBS by CH004 as a function of Hcys concentration in the presence of 20 mM Cys and 100 μM PLP (mixed inhibition constant αKi’=7.2 ± 1.6 μM). Each point in the Lineweaver-Burk plots represents the means of triplicate. The αKi or αKi’ values were calculated by using the non-linear fitting method for enzyme kinetics in GraphPad Prism 5. (E) Surface Plasmon Resonance assays analysis of the binding of CH004 to hCBS. […] Dissociation constants for CH004 (KD) were calculated by using Biacore evaluation software (Materials and Methods).

`Cn1nc(Cc2ccccc2)nc2c(=O)n(C)c(=O)nc1-2` [CH004, 3-benzyl-1,6-dimethylpyrimido[5,4-e][1,2,4]triazine-5,7(1H,6H)-dione] was tested, and the “reversibility of binding to hCBS” value was “binds reversibly; also recorded: reversibly binds”.
